This assay relates to KB. The experiment in a line: Cytotoxicity against human KB cells. It is filed as functional, cell-based.

In brackets after ≈: the same amount, converted by molar mass.

Turning to `CN1CCc2c3n(c4cc(Br)ccc24)[C@H](O)CCC[C@@H]31` [ARBORESCIDINE D], the IC50 came to 3 µg/mL (≈ 8.95 µM).

For the origin of these results see ChEMBL document CHEMBL1147333, “Brominated indole alkaloids from the marine tunicate Pseudodistoma arborescens” (J Nat Prod, 1993).
